# Results as given in patent publication US7262052B1, “α-2/δ gene” (Warner Lambert Company, priority 1999, dated 2007).
# Values joined by “and” are separate entries in the source; they are usually repeats but may differ in a detail not shown here. Identical values can stand only once.
# B1: α2δC: novel human α2δ-C calcium channel subunit (SEQ ID NO 5), expressed from injected cRNA (protein, listed as Homo sapiens)
# chain: MAGPGSPRRASRGASALLAAALLYAALGDVVRSEQQIPLSVVKLWASAFGGEIKSIAAKYSGSQLLQKKYKEYEKDVAIEEIDGLQLVKKLAKNMEEMFHKKSEAVRRLVEAAEEAHLKHEFDADLQYEYFNAVLINERDKDGNFLELGKEFILAPNDHFNNLPVNISLSDVQVPTNMYNKDPAIVNGVYWSESLNKVFVDNFDRDPSLIWQYFGSAKGFFRQYPGIKWEPDENGVIAFDCRNRKWYIQAATSPKDVVILVDVSGSMKGLRLTIAKQTVSSILDTLGDDDFFNIIAYNEELHYVEPCLNGTLVQADRTNKEHFREHLDKLFAKGIGMLDIALNEAFNILSDFNHTGQGSICSQAIMLITDGAVDTYDTIFAKYNWPDRKVRIFTYLIGREAAFADNLKWMACANKGFFTQISTLADVQENVMEYLHVLSRPKVIDQEHDVVWTEAYIDSTLTDDQGPVLMTTVAMPVFSKQNETRSKGILLGVVGTDVPVKELLKTIPKYKLGIHGYAFAITNNGYILTHPELRLLYEEGKKRRKPNYSSVDLSEVEWEDRDDVLRNAMVNRKTGKFSMEVKKTVDKGKRVLVMTNDYYYTDIKGTPFSLGVALSRGHGKYFFRGNVTIEEGLHDLEHPDVSLADEWSYCNTDLHPEHRHLSQLEAIKLYLKGKEPLLQCDKELIQEVLFDAVVSAPIEAYWTSLALNKSENSDKGVEVAFLGTRTGLSRINLFVGAEQLTNQDFLKAGDKENIFNADHFPLWYRRAAEQIPGSFVYSIPFSTGPVNKSNVVTASTSIQLLDERKSPVVAAVGIQMKLEFFQRKFWTASRQCASLDGKCSISCDDETVNCYLIDNNGFILVSEDYTQTGDFFGEIEGAVMNKLLTMGSFKRITLYDYQAMCRANKESSDGAHGLLDPYNAFLSAVKWIMTELVLFLVEFNLCSWWHSDMTAKAQKLKQTLEPCDTEYPAFVSERTIKETTGNIACEDCSKSFVIQQIPSSNLFMVVVDSSCLCESVAPITMAPIEIRYNESLKCERLKAQKIRRRPESCHGFHPEENARECGGAPSLQAQTVLLLLPLLLMLFSR
# Tests used:
# Human α2δ-B = molecular target: T1, Human α2δ-B (Homo sapiens, UniProt Q9NY47); test: [3H]gabapentin saturation binding, membranes of transiently transfected COS-7 cells
# T1 construct: transiently transfected with the full-length porcine α2δ-A, and human α2δ-B genes; expressed in transfected cells; host or cells: COS-7 cells, pcDNA3.1 vector, lipofectamine; membranes
# T1 sequence (Q9NY47 19-1145 isoform Q9NY47-3 limits assumed): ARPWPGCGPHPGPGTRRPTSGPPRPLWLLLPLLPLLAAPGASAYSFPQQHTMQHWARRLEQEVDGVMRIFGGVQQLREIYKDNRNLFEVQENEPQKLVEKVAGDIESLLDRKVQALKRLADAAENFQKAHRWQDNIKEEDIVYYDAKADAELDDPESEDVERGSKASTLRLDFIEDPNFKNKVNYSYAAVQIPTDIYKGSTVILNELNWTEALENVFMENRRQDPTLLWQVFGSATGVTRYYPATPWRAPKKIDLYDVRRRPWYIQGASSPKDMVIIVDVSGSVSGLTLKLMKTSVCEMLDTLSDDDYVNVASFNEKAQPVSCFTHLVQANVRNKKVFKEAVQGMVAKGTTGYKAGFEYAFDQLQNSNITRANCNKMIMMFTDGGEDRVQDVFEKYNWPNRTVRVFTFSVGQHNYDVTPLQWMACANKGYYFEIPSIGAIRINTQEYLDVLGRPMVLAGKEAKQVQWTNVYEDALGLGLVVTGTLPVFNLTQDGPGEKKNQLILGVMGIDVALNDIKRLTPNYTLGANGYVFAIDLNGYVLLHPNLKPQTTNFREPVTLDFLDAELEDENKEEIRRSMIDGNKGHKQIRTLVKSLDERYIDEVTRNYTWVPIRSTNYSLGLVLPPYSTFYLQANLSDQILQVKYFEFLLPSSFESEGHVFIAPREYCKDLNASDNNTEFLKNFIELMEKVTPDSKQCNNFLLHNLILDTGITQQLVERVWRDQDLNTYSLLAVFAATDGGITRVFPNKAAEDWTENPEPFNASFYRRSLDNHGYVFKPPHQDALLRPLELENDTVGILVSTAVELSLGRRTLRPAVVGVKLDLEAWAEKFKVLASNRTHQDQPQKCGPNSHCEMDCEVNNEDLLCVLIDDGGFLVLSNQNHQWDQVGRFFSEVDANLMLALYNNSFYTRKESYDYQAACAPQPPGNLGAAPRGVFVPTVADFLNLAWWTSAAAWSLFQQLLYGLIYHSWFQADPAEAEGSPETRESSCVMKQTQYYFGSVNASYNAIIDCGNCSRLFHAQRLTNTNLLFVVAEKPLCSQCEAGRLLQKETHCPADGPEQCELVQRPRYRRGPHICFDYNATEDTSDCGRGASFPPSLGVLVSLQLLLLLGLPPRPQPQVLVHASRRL
# From the text: […]. […] […].
# The filters were then counted in a scintillation counter.
# [1] = tested on: voltage-gated Ca2+ channels (α1B, β1C subunits); test: Ca2+ channel currents in Xenopus oocytes injected with cRNA, two-electrode voltage clamp; type: cell-based; conditions: for increase in current compared to no α2δ subunits: co-injected with α1B and β1C in Xenopus oocytes
# Experimental: Since α2δ-C has sequence homology to α2δ-A, and α2δ-A functions as a subunit of VSCCs, experiments were undertaken to determine if α2δ-C can replace α2δ-A and produce functional VSCCs. Xenopus oocytes were isolated using standard techniques and injected with cRNA for α1B, β1C and α2δ-C subunits of voltage-gated Ca^2+ channels. Four days to 1 week following injection of cRNA, Ca^2+ channel currents were measured using two-electrode voltage clamp with 5 mM Ba^2+ as the charge carrier. Test pulses to +10 mV from a holding membrane potential of −80 mV were applied to evoke Ca^2+ channel currents. Peak inward currents evoked during the test pulse were measured. The amplitude of inward currents is proportional to the expression level of voltage-gated Ca^2+ channels.
Molecule,"Kd (Human α2δ-B; KD, single determinations (n = 2), 21° C., COS-7 membranes)","Kd (Human α2δ-B; Mean KD, mean of n = 2) [nM]",binding of [3H]gabapentin (in words) (Human α2δ-B; full-length gene product expressed transiently in COS-7),increase in current compared to no α2δ subunits [1] [fold],"peak inward current amplitude ([1]; co-injected with α1B and β1C, 5 mM Ba2+, test pulse to +10 mV from −80 mV, n=20, p<0.01 vs no α2δ) [nA]"
"NCC1(CC(=O)O)CCCCC1 [[3H]gabapentin, gabapentin]",32.6 nM and 87.2 nM,59.9,high affinity,–,–
"α2δA: known α2δ-A subunit of the voltage-sensitive calcium channel, comparator",–,–,–,20,–
B1,–,–,–,2,213±12
